Measured values as given in US20190060239A1, “Technology for the Preparation of Microparticles” (Ansun Biopharma, Inc., priority 2007, published 2019).

Columns and labels:
Format in all cases: physicochemical
[1] = Microsphere quality score by light microscopy (scoring system of Table 13); conditions: for microsphere formation: control
Method: For each of the compounds listed in A-D above, and for DAS181, cocktail solutions containing 2 mg/ml of compound dissolved in an aqueous solvent and various counterions, antisolvents and pH, as listed below, were prepared in a 96-well microtiter plate (0.1 ml cocktail/well) at room temperature. Control solutions contained either solvent or antisolvent alone, with or without the counterion. Cocktails were cooled by placing in a freezer. The chilled plates were transferred onto pre-chilled (−45° C.) shelves of a Millrock Lab Series Lyophilizer, and the vacuum was applied. The frozen cocktail solutions were allowed to lyophilize for 16 hours.
The lyophilized powders from the bottoms of the wells were transferred onto glass slides and analyzed by light microscopy for appearance. The quality of the product microspheres was scored based on the uniformity of the microspheres, the absence of undesirable non-microsphere particles (glass-like crystalline forms), and the absence of aggregates.
Arginine was used as counterion and isopropanol was used as antisolvent. Concentrations of each of the cocktail components—the compound, the counterion and the antisolvent—were varied as shown below in Table 15, and the effect on microsphere quality assessed.
Experiments were performed to evaluate the effect of antisolvent and counterion concentration variation on the formation of microspheres. The peptides leuprolide and somatostatin, and the antibiotics vancomycin and tobramycin, were tested under a variety of conditions for forming microspheres. Samples were analyzed in 96-well plates as described in the previous Examples.
The experiments were performed using PGI2 and an analog of PGI2, Ciprostene, at a concentration of 2 mg/ml. Cocktail solutions were mixed at room temperature, then cooled by placing in a freezer. The chilled plates were transferred onto pre-chilled (−45° C.) shelves of a Millrock Lab Series Lyophilizer, and the vacuum was applied. The frozen cocktail solutions were allowed to lyophilize for 16 hours.
Because the resulting prostaglandin microspheres are hygroscopic, upon microsphere initiation, the humidity was maintained at low levels during the experiments, using a nitrogen gas tank attached to the backfill system on the lyophilizer. Each of the reaction tubes was flushed with N2. In addition, the backfill valve on the lyophilizer was left open to continually flush a low humidity atmosphere over the samples. The microscope used to visualize the resulting microspheres was contained within a plastic bag that was continually purged with dry N2. Sample tubes were placed under the bag to equilibrate for approximately 30 seconds, before opening and spreading onto the glass slide.
The compound/counterion/antisolvent conditions were as follows:
Experiments were performed with 200 μl of each of the above cocktail solutions in a 2 ml lyophilization bottle (first flash freeze condition), and 25 μl of each of the above cocktail solutions in a PCR tube (second flash freeze condition). The samples in the lyophilization bottles took approximately 15 seconds to freeze. The samples in the PCR tubes took approximately 3 seconds or less to freeze.
The cocktails in the 96-well plates were cooled by placing in a freezer. The chilled plates were transferred onto pre-chilled (−45° C.) shelves of a Millrock Lab Series Lyophilizer, and a vacuum was applied. The frozen cocktail solutions were allowed to lyophilize for 16 hours.
The lyophilized powders from the bottoms of the wells were transferred onto glass slides and analyzed by light microscopy for appearance.

[2] = Microsphere formation, size and appearance by light microscopy; conditions: for Microsphere Size (microns): 5 mg/ml protein
[3] = Cascade Impaction of vancomycin microspheres, New Generation Impactor
Method: Vancomycin was dissolved in aqueous buffer at a final concentration of 10 mg/ml. The cocktail contained 5 mM sodium citrate pH 5.0 as counterion and 15% v/v n-propanol as anti-solvent. A 2 ml aliquot of cocktail was frozen in a 10-ml lyophilization vial placed in a −80° C. freezer for 1 hour. The frozen vial was transferred onto a −45° C. lyophilizer shelf and freeze dried for 36 hours.
The microspheres prepared as described in Example 5 were tested by Cascade Impaction using a New Generation Impactor. The deposition of pharmaceuticals in the respiratory tract can be predicted by the aerodynamic behavior of particles (microspheres) on the stages/collection plates of the cascade impactor.
The microspheres (10 mg) were loaded into HPMC (hydroxypropyl methylcellulose) capsule. The capsule was placed into a CycloHaler (PharmaChemie) dry powder inhaler and subjected to cascade impaction. The collection plates of the impactor representing various areas/stages of deposition post-inhalation (trachea, primary and secondary bronchi, terminal bronchi, alveoli, etc.) were coated with silicon spray to prevent bouncing of the microspheres. The microspheres from the stages and collection plates were recovered into a phosphate buffered saline containing 0.1% Tween, and the amount of deposited vancomycin recovered from each stage and collection plate was quantified by measuring absorbance at 280 nm.

CC1(C)S[C@@H]2[C@H](NC(=O)[C@H](N)c3ccccc3)C(=O)N2[C@H]1C(=O)O [Ampicillin]
Microsphere Quality ([1]; 2 mg/ml compound, 2 mM Na-Citrate, 5% n-propanol, pH 5.0): 3/4 | Microsphere Quality ([1]; 2 mg/ml compound, 2 mM Na-Glutamate, 5% n-propanol, pH 4.0): 3-5

CCCCC[C@H](O)/C=C/[C@@H]1[C@H]2C/C(=C/CCCC(=O)O)O[C@H]2C[C@H]1O [Prostaglandin I2]
Microsphere Quality ([1]; compound 2 mg/ml, 2 mM Arginine, pH 9, 20% n-propanol, 5% t-butanol): 7/8 | Microsphere Quality ([1]; compound 2 mg/ml, 2 mM Arginine, pH 9, 20% n-propanol, 55% t-butanol): 5/6 | Microsphere Quality ([1]; compound 2 mg/ml, 2 mM TEA, pH 11, 20% n-propanol, 5% t-butanol): 7/8 | Microsphere Quality ([1]; compound 2 mg/ml, 2 mM TEA, pH 11, 30% n-propanol, 0% t-butanol): 2/3

NC[C@H]1O[C@H](O[C@H]2[C@H](O)[C@@H](O[C@H]3O[C@H](CO)[C@@H](O)[C@H](N)[C@H]3O)[C@H](N)C[C@@H]2N)[C@H](N)C[C@@H]1O [Tobramycin]
Microsphere Quality ([1]; compound 2 mg/ml, Itaconic acid-Na, pH 4.0 2 mM, Isopropanol 0%): 4/5 | Microsphere Quality ([1]; compound 2 mg/ml, Itaconic acid-Na, pH 4.0 2 mM, Isopropanol 5%): 7/8 | Microsphere Quality ([1]; compound 2 mg/ml, Itaconic acid-Na, pH 4.0 2 mM, Isopropanol 30%): 8/9 | Microsphere Quality ([1]; compound 2 mg/ml, Itaconic acid-Na, pH 4.0 2 mM, Isopropanol 40%): 6/7 | Microsphere Quality ([1]; compound 2 mg/ml, Itaconic acid-Na, pH 4.0 2 mM, Isopropanol […]): 7/8 | Microsphere Quality ([1]; compound 2 mg/ml, Itaconic acid-Na, pH 4.0 5 mM, Isopropanol 5%): Crystals | Microsphere Quality ([1]; compound 2 mg/ml, Itaconic acid-Na, pH 4.0 10 mM, Isopropanol 5%): Crystals | Microsphere Quality ([1]; compound 2 mg/ml, Itaconic acid-Na, pH 4.0 15 mM, Isopropanol 5%): Crystals | Microsphere Quality ([1]; compound 2 mg/ml, Itaconic acid-Na, pH 4.0 17 mM, Isopropanol 5%): Crystals | Microsphere Quality ([1]; pH 4): Crystals

CN[C@H](CC(C)C)C(=O)N[C@H]1C(=O)N[C@@H](CC(N)=O)C(=O)N[C@H]2C(=O)N[C@H]3C(=O)N[C@H](C(=O)N[C@H](C(=O)O)c4cc(O)cc(O)c4-c4cc3ccc4O)[C@H](O)c3ccc(c(Cl)c3)Oc3cc2cc(c3O[C@@H]2O[C@H](CO)[C@@H](O)[C@H](O)[C@H]2O[C@H]2C[C@](C)(N)[C@H](O)[C@H](C)O2)Oc2ccc(cc2Cl)[C@H]1O [Vancomycin]
geometric size of microspheres ([2]; 10 mg/ml vancomycin, 5 mM sodium citrate pH 5.0, 15% v/v n-propanol, light microscopy): 1.0-3.0 microns | Microsphere Quality ([1]; compound 2 mg/ml, Na-citrate, pH 5.0 7.5 mM, Isopropanol 5%): 9/8 | Microsphere Quality ([1]; compound 2 mg/ml, Na-citrate, pH 5.0 […], Isopropanol 5%): 9/8 | microsphere rating ([1]; pH 5): 9/10 | Percent Deposition of Vancomycin ([3]; Capsule + device, size cut-off NA): 37.57% | Percent Deposition of Vancomycin ([3]; Throat, size cut-off >10 microns, oral cavity): 10.48% | Percent Deposition of Vancomycin ([3]; impactor component 1, size cut-off >8.06 microns, Oral cavity/pharynx): 3.33% | Percent Deposition of Vancomycin ([3]; impactor component 2, size cut-off 4.46-8.06 microns, pharynx): 7.71% | Percent Deposition of Vancomycin ([3]; impactor component 3, size cut-off 2.82-4.46 microns, trachea/bronchi): 15.47% | Percent Deposition of Vancomycin ([3]; impactor component 4, size cut-off 1.66-2.82 microns, secondary bronchi): 16.69% | Percent Deposition of Vancomycin ([3]; impactor component 5, size cut-off 0.94-1.66 microns, terminal bronchi/alveoli): 6.38% | Percent Deposition of Vancomycin ([3]; impactor component 6, size cut-off 0.55-0.94 microns, alveoli): 1.59% | Percent Deposition of Vancomycin ([3]; impactor component 7, size cut-off 0.34-0.55 microns, alveoli): 0.51% | Percent Deposition of Vancomycin ([3]; impactor component 8, size cut-off <0.34 microns, alveoli): 0.27%

C=C(CC(=O)O)C(=O)O [itaconic acid]
microsphere formation ([1]; no added compound: 2 mM itaconic acid buffered to pH 7, 5% isopropanol): hygroscopic microspheres | microsphere formation ([1]; no added compound: 2 mM itaconic acid buffered with sodium hydroxide at pH 4, 15% isopropanol): microspheres were formed

CCNC(=O)[C@@H]1CCCN1C(=O)[C@H](CCCNC(=N)N)NC(=O)[C@H](CC(C)C)NC(=O)[C@@H](CC(C)C)NC(=O)[C@H](Cc1ccc(O)cc1)NC(=O)[C@H](CO)NC(=O)[C@H](Cc1c[nH]c2ccccc12)NC(=O)[C@H](Cc1c[nH]cn1)NC(=O)[C@@H]1CCC(=O)N1 [leuprolide]
Microsphere Quality ([1]; 2 mM Na-citrate, 15% isopropanol, pH 4.0): 5/6

Green fluorescent protein
Microsphere Size (microns) ([2]; 5 mM pivalic acid, pH 7.0, 10% 1-propanol): 0.5-1.5 microns

Hemoglobin
Microsphere Size (microns) ([2]; 5 mM glycine, pH 5.0, 10% isopropanol): 0.4-0.7 microns

Lysozyme: purchased from Sigma
Microsphere Size (microns) ([2]; 5 mM citrate, pH 8.0, 5% isopropanol): 4-5 microns

B1: RNase A: purchased from Sigma (protein, UniProt P61823 27-150, looked up)
Ribonuclease pancreatic: KETAAAKFERQHMDSSTSAASSSNYCNQMMKSRNLTKDRCKPVNTFVHESLADVQAVCSQKNVACKNGQTNCYQSYSTMSITDCRETGSSKYPNCAYKTTQANKHIIVACEGNPYVPVHFDASV
Microsphere Size (microns) ([2]; 5 mM citrate, pH 4.0, 5% isopropanol): 0.4-1 microns

B2: Ovalbumin: purchased from Sigma (protein, UniProt P01012 2-386, looked up)
Ovalbumin: GSIGAASMEFCFDVFKELKVHHANENIFYCPIAIMSALAMVYLGAKDSTRTQINKVVRFDKLPGFGDSIEAQCGTSVNVHSSLRDILNQITKPNDVYSFSLASRLYAEERYPILPEYLQCVKELYRGGLEPINFQTAADQARELINSWVESQTNGIIRNVLQPSSVDSQTAMVLVNAIVFKGLWEKAFKDEDTQAMPFRVTEQESKPVQMMYQIGLFRVASMASEKMKILELPFASGTMSMLVLLPDEVSGLEQLESIINFEKLTEWTSSNVMEERKIKVYLPRMKMEEKYNLTSVLMAMGITDVFSSSANLSGISSAESLKISQAVHAAHAEINEAGREVVGSAEAGVDAASVSEEFRADHPFLFCIKHIATNAVLFFGRCVSP
Microsphere Size (microns) ([2]; 5 mM pivalic acid, pH 4.0, 10% isopropanol): 0.5-1 microns

B3: Trypsin: purchased from Worthington (protein, UniProt P00760 24-246, looked up)
Serine protease 1: IVGGYTCGANTVPYQVSLNSGYHFCGGSLINSQWVVSAAHCYKSGIQVRLGEDNINVVEGNEQFISASKSIVHPSYNSNTLNNDIMLIKLKSAASLNSRVASISLPTSCASAGTQCLISGWGNTKSSGTSYPDVLKCLKAPILSDSSCKSAYPGQITSNMFCAGYLEGGKDSCQGDSGGPVVCSGKLQGIVSWGSGCAQKNKPGVYTKVCNYVSWIKQTIASN
Microsphere Size (microns) ([2]; 5 mM arginine, pH 8.0, 5% isopropanol): 0.5-1 microns

B4: PIN 168 (PI8): hexahistidine-tagged human proteinase inhibitor 8 (SEQ ID NO:15) (protein, listed as Homo sapiens)
chain: MDDLCEANGTFAISLFKILGEEDNSRNVFFSPMSISSALAMVFMGAKGSTAAQMSQALCLYKDGDIHRGFQSLLSEVNRTGTQYLLRTANRLFGEKTCDFLPDFKEYCQKFYQAELEELSFAEDTEECRKHINDWVAEKTEGKISEVLDAGTVDPLTKLVLVNAIYFKGKWNEQFDRKYTRGMLFKTNEEKKTVQMMFKEAKFKMGYADEVHTQVLELPYVEEELSMVILLPDDNTDLAVVEKALTYEKFKAWTNSEKLTKSKVQVFLPRLKLEESYDLEPFLRRLGMIDAFDEAKADFSGMSTEKNVPLSKVAHKCFVEVNEEGTEAAAATAVVRNSRCSRMEPRFCADHPFLFFIRRHKTNCILFCGRFSSP
modifications: hexahistidine tag; protease inhibitor 8 (PI8) (Serpin B8)
Microsphere Size (microns) ([2]; 5 mM citrate, pH 5.0, 7% isopropanol): 2-5 microns
